“Also recorded” adds a separate entry of the source. Read-outs that look alike come from different tables or passages of the source.
What was measured:
[1] = system: prolonged PGE2-induced hyperalgesia; assay: Prolonged hyperalgesia in carrageenan-sensitized rats (chronic inflammatory pain model); assay type: in vivo, rat; conditions: 1 μg at the same time as carrageenan; PGE2 72 or more hours later
Excerpt: In order to investigate the role, if any, of PKCε in chronic inflammatory pain, the following model system for chronic inflammatory pain was developed. Rats received intradermal hind paw injections of carrageenan, an inflammatory agent. […] This was considered an acute response to the carrageenan-induced inflammation. Although administration of Prostaglandin E2 (“PGE2”), 5-hydroxytryptamine (“5-HT,” serotonin) or CGS-21680 (an adenosine A2-selective receptor agonist) normally causes untreated rats (that is, rats that have not received carrageenan injections) to experience hyperalgesia lasting up to 6 hours, the hyperalgesia experienced by carrageenan-sensitized rats following administration of any one of these substances lasted up to 24 hours.
The prolonged PGE2-induced hyperalgesia normally seen in carrageenan-sensitized rats was inhibited by administration of BIM or εV1-2.
To examine whether protein kinase C modulates the processes by which a brief inflammatory event causes prolonged hyperalgesia many days later, rats received carrageenan and 1 μg BIM injections at the same time. Hyperalgesia was measured 72 hours later, when the rats were treated PGE2. […]

[2] = system: diabetes-induced hyperalgesia; assay: Streptozotocin diabetes-induced hyperalgesia, mechanical stimuli; assay type: in vivo, rat; conditions: 1 μg intradermal after sterile water, four weeks after streptozotocin 70 mg/kg
Procedure: Persons with uncontrolled or poorly controlled diabetes frequently experience hyperalgesia. The role of PKCε in diabetic neuropathy was examined in a model of diabetes in which male Sprague-Dawley rats receive subcutaneous injection of streptozotocin (70 mg/kg), a pancreatic β-cell toxin. These rats display hyperglycemia and glucosuria within 24 hours after the injection and show decreased nociceptive thresholds in response to mechanical stimuli administered by Ugo Basile analgesymeter in the hind paw after one week (Ahlgren, S. C. et al, J. Neurophysiology, 68, 2077-2085 (1992); Ahlgren, S. C. and Levine, J. D., Neuroscience 52, 1049-1055 (1993)). Four weeks after the streptozotocin injection, each rat received no treatment (n=8) or an intradermal injection of sterile water followed by a intradermal injections of (1) 1 μg bisindolymaleimide, a protein kinase C inhibitor (n=4; labeled “BIM” on FIG. 12B), (2) 1 μg εV1-2, a PKCε inhibitory peptide (n=8; labeled “PKCεI” on FIG. 12B), or (3) 1 μg S-VεV1-2, a scrambled version of the εV1-2 peptide (n=4; labeled “PCKεI SCR” on FIG. 12B) and were subsequently exposed to mechanical stimuli.

[3] = system: epinephrine-induced hyperalgesia; assay: Epinephrine-induced mechanical hyperalgesia, paw withdrawal threshold (Ugo Basile Analgesimeter); assay type: in vivo, rat; conditions: for Percentage decrease in nociceptive threshold in response to epinephrine: epinephrine 100 ng, DAMGO, SQ22536, BIM, Rp-cAMPs 1 μg, WIPTIDE 0.1 μg, larger value = more hyperalgesia; for Effect on epinephrine-induced hyperalgesia: rat hindpaw, intradermal, mechanical stimulus
Procedure: The roles of PKC, protein kinase A (“PKA”) and the μ-opioid receptor in mediating epinephrine-induced hyperalgesia were assessed by measuring the effects of: Rp-adenosine 3′, 5′-cyclic monophosphate (“Rp-cAMPs”) and WIPTIDE, both inhibitors of PKA; SQ22536, an inhibitor of adenylyl cyclase, an enzyme activated by PKA; bisindolymaleimide (“BIM”), a nonselective inhibitor of PKC isozymes; and [D-Ala^2, N-Me-Phe^4, Gly^5-ol]-enkephalin (“DAMGO”), μ-opioid receptor agonist. The dose for each inhibitor was 1 μg, except for WIPTIDE, which was administered in a 100 ng dose.

[4] = system: PGE2-induced hyperalgesia; assay: PGE2-induced mechanical hyperalgesia, paw withdrawal threshold; assay type: in vivo, rat; conditions: PGE2 100 ng; for Effect on PGE2-induced hyperalgesia: rat hindpaw, mechanical stimulus
Procedure: The roles of PKC, protein kinase A (“PKA”) and the μ-opioid receptor in mediating epinephrine-induced hyperalgesia were assessed by measuring the effects of: Rp-adenosine 3′, 5′-cyclic monophosphate (“Rp-cAMPs”) and WIPTIDE, both inhibitors of PKA; SQ22536, an inhibitor of adenylyl cyclase, an enzyme activated by PKA; bisindolymaleimide (“BIM”), a nonselective inhibitor of PKC isozymes; and [D-Ala^2, N-Me-Phe^4, Gly^5-ol]-enkephalin (“DAMGO”), μ-opioid receptor agonist. The dose for each inhibitor was 1 μg, except for WIPTIDE, which was administered in a 100 ng dose. DAMGO was co-injected with epinephrine whereas the other inhibitors were applied 15 minutes prior to epinephrine injection.
For mechanical nociceptive testing, the nociceptive flexion reflex was quantified using an Ugo Basile analgesymeter that applies a constantly increasing force measured in grams (Stoelting, Chicago, Ill.; K. O. Aley, J. D. Levine, J. Neurosci. 17, 8018-23 (1997)). The mean basal mechanical threshold for rats used in these experiments was 105.3+/−2.8 grams. The effects of hyperalgesia-inducing agents epinephrine (100 ng) and PGE2 (100 ng) on mechanical nociceptive thresholds were determined by measuring paw withdrawal frequencies at 15, 20, and 25 minutes after administration of the hyperalgesic agent and then calculating the mean of these three readings.

[5] = system: carrageenan-induced hyperalgesia; assay: Carrageenan-induced acute hyperalgesia, mechanical stimuli; assay type: in vivo, rat; conditions: 1 μg injected at the same time as carrageenan
Procedure: The acetic acid writhing experiments reported in Example 3 indicate that PKCε contributes to inflammatory pain. To investigate whether PKCε mediates hyperalgesia induced by other inflammatory agents, rats received intradermal 10 μl injections of a 1% solution of carrageenan, a potent irritant (Ferreira, S. H. et al, Nature 334, 698-700 (1988)) and three and a half hours later, the rats received no treatment (n=12; labeled “Car-4” on FIG. 13) or intradermal injections of sterile water followed by intradermal injections of either 1 μg εV1-2, a PKCε inhibitory peptide (n=6; labeled “εV” on FIG. 13), or 1 μg S-VεV1-2, a scrambled version of the εV1-2 peptide (n=6; labeled “S-εV” on FIG. 13).
To examine whether protein kinase C modulates the processes by which a brief inflammatory event causes prolonged hyperalgesia many days later, rats received carrageenan and 1 μg BIM injections at the same time. Hyperalgesia was measured 72 hours later, when the rats were treated PGE2. […] Therefore, administration of an inhibitor of PKC either at approximately the same time as the inflammatory agent giving rise to chronic, prolonged hyperalgesia or at about the same time as the hyperalgesia-inducing stimulus can lessen such chronic hyperalgesia.

[6] = system: isoproterenol-induced hyperalgesia; assay: Isoproterenol-induced mechanical hyperalgesia, paw withdrawal threshold; assay type: in vivo, rat; conditions: for Effect on isoproterenol-induced hyperalgesia: rat hindpaw, intradermal
[7] = system: tetrodotoxin-resistant sodium current (TTX-RINa); assay type: cell-based, rat; conditions: for Effect on epinephrine-induced potentiation of TTX-RINa: 1 μM epinephrine, propranolol 2 μM, phentolamine 5 μM, Rp-cAMPs 100 μM, BIM 100 μM
[8] = system: PGE2-induced hyperalgesia; conditions: PGE2 100 ng; inhibitor 1 μg; data from Khasar 1995 or Taiwo and Levine 1991; cited from earlier work
wild-type mice = assay: von Frey hair paw withdrawal frequency in mice; assay type: in vivo, mouse; conditions: 100 ng intraplantar, wild-type mice, 4, 6.9 or 14.8 grams
Procedure: Mechanical, thermal and chemical nociception were evaluated in wild-type and PKCε-mutant mice. For both wild-type (n=8) and PKCε-mutant (n=8) mice, the basal mechanical nociceptive threshold was measured as the frequency at which mice withdrew their paws after being poked in the hindpaw with a von Frey Hair (“VFH”; Stoelting Co.) applying a force of 4, 6.9 or 14.8 grams.

[9] = system: small diameter DRG neurons; assay: Current-clamp (perforated-patch whole-cell) excitability of cultured DRG neurons; assay type: cell-based, rat
[10] = Rotorod analysis of motor deficits; assay type: in vivo, rat; conditions: vincristine 100 μg/kg intravenously daily
Procedure: (§1) Humans undergoing chemotherapy frequently experience hyperalgesia. Vincristine is a chemotherapeutic drug known to cause such hyperalgesia, and a rat model of vincristine-induced hyperalgesia was established as follows. Vincristine (100 μg/kg in saline; Sigma Chemical Catalog) was administered intravenously daily to each of 32 rats over a period of two weeks.

[11] = system: vincristine-induced hyperalgesia; assay: Vincristine-induced hyperalgesia, mechanical stimuli (Ugo Basile analgesymeter); assay type: in vivo, rat; conditions: vincristine 100 μg/kg intravenously daily, after the second day
Procedure: as §1
To determine whether administration of an inhibitor of PKCε would lessen vincristine-induced hyperalgesia in the rat model described above, on the 13th day of vincristine treatment, rats received no treatment (n=16) or intradermal injections of sterile water followed by intradermal injections of either 1 μg εV1-2, a PKCε inhibitory peptide (n=8; labeled “PKCεI” on FIG. 12A), or 1 μg S-VεV1-2, a scrambled version of the εV1-2 peptide (n=8; labeled “PCKεI SCR” on FIG. 12A), 20-30 minutes before administration of a mechanical stimulus.

[12] = system: PGE2-induced hyperalgesia; conditions: earlier studies; cited from earlier work
[13] = similar dose, normal rat, earlier studies; cited from earlier work
[14] = system: formalin-induced hyperalgesia; conditions: earlier studies; cited from earlier work
[15] = after 1 μg epinephrine injection
[16] = 10 μM propranolol 30 seconds prior to and with 1 μM epinephrine

For `CN(C)CCCn1cc(C2=C(c3c[nH]c4ccccc34)C(=O)NC2=O)c2ccccc21` [BIM, bisindolymaleimide I], which “Effect on prolonged hyperalgesia on PGE2 treatment after carrageenan” value [1] is on record?
The value was “attenuated”.

What about the “Effect on diabetes-induced decrease in nociceptive threshold” value [2] of the same molecule?
Its value is “somewhat greater reduction in the percentage decrease in nociceptive threshold than PKCε I; also recorded: markedly reduced”.

What about the “Percentage decrease in nociceptive threshold in response to epinephrine” value [3] of the same molecule?
The value was 4.6 ± 2.1 %.

And the “Effect on epinephrine-induced hyperalgesia” value [3]?
The value was “inhibits epinephrine-induced hyperalgesia to a similar extent as εV1-2”.

And the “Percentage decrease in nociceptive threshold in response to PGE2” value ([4]; BIM 1 μg, WIPTIDE 0.1 μg)?
Its value is 33.4 ± 4.1%.

What about the “Effect on PGE2-induced hyperalgesia” value [4] of the same molecule?
Its value is “no effect”.

And the “Effect on acute hyperalgesia induced by carrageenan” value [5]?
Its value is “attenuated”.

And the “Percentage decrease in nociceptive threshold in response to isoproterenol” value ([6]; isoproterenol 100 ng, BIM 1 μg, WIPTIDE 0.1 μg)?
Its value is 7.1 ± 2.4 %.

What about the “Effect on isoproterenol-induced hyperalgesia” value [6] of the same molecule?
The value was “significantly attenuated”.

And the “Effect on epinephrine-induced potentiation of TTX-RINa” value (from here on “Effect … of TTX-RINa”) [7]?
The value was “significantly decreased”.

Which “Percentage decrease in nociceptive threshold in response to PGE2” value [8] does the source give for `Nc1ncnc2c1ncn2C1CCCO1` (stereo not shown) [SQ22536] here?
Its value is 10.0 ± 2.9 %.

What about the “Percentage decrease in nociceptive threshold in response to epinephrine” value [3] of the same molecule?
Its value is 9.5 ± 2.4 %.

For `Nc1ncnc2c1ncn2[C@@H]1O[C@@H]2CO[P@@](O)(=S)O[C@H]2[C@H]1O` [Rp-cAMPs, Rp-adenosine 3′, 5′-cyclic monophosphate], which “Effect … of TTX-RINa” value [7] is on record?
The value was “abolished”.

For `CNC[C@H](O)c1ccc(O)c(O)c1` [Epinephrine, epinephrine], which “Percent-withdrawal response to VFH stimulus” value (wild-type mice) is on record?
The value was “dramatically increased”.

What about the Duration of hyperalgesia [3, 15] of the same molecule?
The Duration of hyperalgesia was “approximately 2 hours”.

And the “Onset latency of hyperalgesia (significant)” value [3, 15]?
Its value is 2 min.

And the “Time to peak hyperalgesic effect” value [3, 15]?
Its value is ≤ 5 min.

What about the “Effect on paw withdrawal threshold” value ([3]; intradermal 1 ng to 1 μg, dorsal hindpaw) of the same molecule?
Its value is “dose-dependent decrease”.

What about the “Effect on TTX-RINa” value ([7]; epinephrine 1 μM) of the same molecule?
Its value is “marked potentiation”.

What does the source list for WIPTIDE?
Effect on PGE2-induced hyperalgesia [4]: significantly attenuated; Effect on isoproterenol-induced hyperalgesia [6]: almost completely abolished

For `COc1ccc2c(c1)c(CC(=O)O)c(C)n2C(=O)c1ccc(Cl)cc1` [indomethacin], which “Effect on epinephrine-induced hyperalgesia” value [3] is on record?
The value was “Neither indomethacin treatment nor sympathectomy had any effect”.

Which “First-spike latency after epinephrine addition” value [9, 16] does the source give for `CC(C)NCC(O)COc1cccc2ccccc12` (stereo not shown) [propranolol] here?
The value was 233 ± 10 ms.

And the “Spike number after epinephrine addition” value [9, 16]?
The value was 1.3±0.2.

And the “Effect on epinephrine-induced increase in spike number and decrease in first-spike latency” value ([9]; 10 μM propranolol, 1 μM epinephrine)?
The value was “abolished”.

And the “Effect on epinephrine-induced hyperalgesia” value [3]?
The value was “significantly attenuated”.

And the “Effect on isoproterenol-induced hyperalgesia” value [6]?
Its value is “significantly attenuated”.

And the “Effect … of TTX-RINa” value [7]?
The value was “eliminated this potentiation”.

For `CC[C@]1(O)C[C@H]2CN(CCc3c([nH]c4ccccc34)[C@@](C(=O)OC)(c3cc4c(cc3OC)N(C=O)[C@H]3[C@@](O)(C(=O)OC)[C@H](OC(C)=O)[C@]5(CC)C=CCN6CC[C@]43[C@@H]65)C2)C1` [Vincristine], which Motor deficits [10] is on record?
The Motor deficits was “did not show any significant motor deficits”.

And the “Effect on mechanical nociceptive thresholds” value [11]?
Its value is “acute dose-dependent decrease”.

With `CC(C)NCC(O)c1ccc(O)c(O)c1` (stereo not shown) [Isoproterenol, isoproterenol] as the molecule, how does the “Hyperalgesia produced in the absence of epinephrine” value ([6]; intradermal injection) read?
Its value is “dose-dependent hyperalgesia”.

What about the “Percentage decrease in nociceptive threshold in response to isoproterenol alone” value ([6]; isoproterenol 100 ng alone) of the same molecule?
The value was 25.8 ± 0.9%.

For `CCCCC[C@H](O)/C=C/[C@H]1[C@H](O)CC(=O)[C@@H]1C/C=C\CCCC(=O)O` [PGE2, prostaglandin E2], which “Percent-withdrawal response to VFH stimulus” value (wild-type mice) is on record?
Its value is “dramatically increased”.

With `Cc1ccc(N(CC2=NCCN2)c2cccc(O)c2)cc1` [phentolamine] as the molecule, how does the “Effect on the ability of rolipram to prolong PGE2-induced hyperalgesia” value [12] read?
Its value is “inhibited”.

And the “Effect on basal paw threshold” value [13]?
Its value is “no effect”.

What about the “Effect on epinephrine-induced hyperalgesia” value [3] of the same molecule?
Its value is “did not significantly affect”.

What about the “Effect on formalin-induced hyperalgesia” value [14] of the same molecule?
Its value is “significantly reversed”.
